Measurements as given in patent publication EP1313763B1, “METHOD FOR THE EXTRACTION AND THE USE OF ANTI[…] PEPTIDES FOR TREATING INFECTIOUS DISEASES” (IPF Pharmaceuticals GmbH, priority 2000, dated 2001).

What was measured:
[1] = test system: Klebsiella pneumoniae ATCC 10031; assay: Minimal inhibitory concentration (MIC) determination; details: incubation 18 ± 2 h, chemically synthesized peptides
Procedure: (§2) Die antimikrobielle Aktivität der erfindungsgemäßen Peptide wurde unter Anwendung der Bestimmung der minimalen Hemmstoffkonzentration (MIC) gegen verschiedene Keime, wie Gram-positive und Gram-negative Bakterien und Hefen, untersucht. Die minimale Hemmstoffkonzentration bezeichnet die Peptidkonzentration, die minimal erforderlich ist, um das Wachstum von Mikroorganismen nach einer Inkubationszeit von 18 ± 2 h vollständig zu hemmen.

[2] = test system: Escherichia coli ATTC 25922; assay: as above; details: incubation 18 ± 2 h, chemically synthesized peptides
Excerpt: (§3) Dabei werden als Testmikroorganismen entweder Staphylococcus aureus oder Escherichia coli verwendet, je nachdem, bei welchem Mikroorganismus das Peptid bessere Wirksamkeit hat. Die Bakterien sind wie folgt charakterisiert: • Staphylococcous aureus: Gram-positive Kokken, ATCC 25923 • Escherichia coll: Gram-negative Stäbchen, ATCC 25922
(§4) Die antimikrobielle Aktivität der erfindungsgemäßen Peptide wurde unter Anwendung der Bestimmung der minimalen Hemmstoffkonzentration (MIC) gegen verschiedene Keime, wie Gram-positive und Gram-negative Bakterien und Hefen, untersucht. Die minimale Hemmstoffkonzentration bezeichnet die Peptidkonzentration, die minimal erforderlich ist, um das Wachstum von Mikroorganismen nach einer Inkubationszeit von 18 ± 2 h vollständig zu hemmen. Diese Quantifizierung der antimikrobiellen Aktivität ist mit chemisch synthetisierten Peptiden (Peptidsequenzen 1-5) gegen nicht pathogene sowie human pathogene Erreger durchgeführt worden.

[3] = test system: Saccharomyces cerevisiae ATCC 9763; assay: as above; details: incubation 18 ± 2 h, chemically synthesized peptides
Procedure: as §2

[4] = test system: Escherichia coli BL21 (DE3); assay: as above; details: incubation 18 ± 2 h, chemically synthesized peptides
Procedure: as §2

[5] = test system: Staphylococcus carnosus TM 300; assay: as above; details: incubation 18 ± 2 h, chemically synthesized peptides
Procedure: as §2

[6] = test system: Micrococcus luteus ATCC 9341; assay: as above; details: incubation 18 ± 2 h, chemically synthesized peptides
Procedure: as §2

[7] = test system: Staphylococcus aureus ATTC 25923; assay: as above; details: incubation 18 ± 2 h, chemically synthesized peptides
Excerpt: as §3, §4

[8] = test system: Bacillus subtilis ATCC 6051; assay: as above; details: incubation 18 ± 2 h, chemically synthesized peptides
Procedure: as §2

E. coli = assay: Radial diffusion inhibition test of HPLC fractions; type: cell-based, Escherichia coli; details: pure peptide in purified HPLC fraction from tissue extract; E. coli in agarose, 37 °C, 16 h
Excerpt: (§1) Für die Reinigung von antimikrobiellen Peptiden aus Plazentaextrakt können verschiedene HPLC Trennverfahren kombiniert werden, um eine möglichst reine Darstellung über eine optimale Trennung zu erzielen und inaktive, unerwünschte Bestandteile abzutrennen. Die jeweiligen Proben, die nach jedem Trennungsschritt entstehen, werden auf ihre antimikrobielle Aktivität gegen Escherichla coli mit Hilfe des Radial-DifFusions-Hemmtests untersucht (siehe Beispiel 3). Notwendig für die Reinigung ist die Kombination von mindestens zwei Reverse Phase Chromatographieschritten und der Einsatz einer Kationenaustausch-HPLC-Trennung. In dem Biotest sollte die jeweilige Probe salzarm eingesetzt werden, um ein möglichst optimales Screeningergebnis zu erhalten.
as §1, with “Thymusextrakt” for “Plazentaextrakt”, “Escherichia” for “Escherichla”, “Radial-Diffusions-Hemmtests” for “Radial-DifFusions-Hemmtests”, “2). Empfehlenswert” for “3). Notwendig”, “In dem Biotest sollte die jeweilige Probe salzarm eingesetzt werden, um ein möglichst optimales Screeningergebnis zu erhalten.” left out

[9] = test system: Pseudomonas aeruginosa clinical isolate; assay: Minimal inhibitory concentration (MIC) determination; details: incubation 18 ± 2 h, chemically synthesized peptides
Procedure: as §2

Substance	minimale Hemmkonzentration (MIC) [1] [µg/mL]	minimale Hemmkonzentration (MIC) [2] [µg/mL]	minimale Hemmkonzentration (MIC) [3] [µg/mL]	minimale Hemmkonzentration (MIC) [4] [µg/mL]	minimale Hemmkonzentration (MIC) [5] [µg/mL]	minimale Hemmkonzentration (MIC) [6] [µg/mL]	minimale Hemmkonzentration (MIC) [7] [µg/mL]	minimale Hemmkonzentration (MIC) [8] [µg/mL]	antimikrobielle Aktivität (E. coli)	minimale Hemmkonzentration (MIC) [9] [µg/mL]
hHEM-g-130-146 [Peptide 1]	300	200	100	100	100	200	200	100	antimikrobiell wirksame	> 200
hGAPDH-1-31 [Peptide 2]	–	–	100	7.8	12.5	31.25	–	7.8	antimikrobiell wirksame	31.25
